Reference: patent publication US10662194B2, “Substituted 6-anilino-9-heterocyclylpurine derivatives for inhibition of plant stress” (UNIVERZITA PALACKEHO V OLOMOUCI, priority 2014, dated 2020)
Marks after values point to notes of the source that are not given here.

Experiments:
[1] = tested on: Salmonella typhimurium strains TA100 and TA98; assay: Ames MPF 98/100 Mutagenicity Assay; format: cell-based; conditions: up to 100 μM, +/−S9, FIG. 12
Procedure: The compound 12 was tested using Ames MPF™ 98/100 Mutagenicity Assay kit (Aniara, Ohio) that is employing Salmonella typhimurium strains TA100 (for the detection of base substitution mutations) and TA98 (for the detection of frameshift mutations) according to the instructions for use.

[2] = tested on: winter wheat variety Diadem; assay: Seed coating, tillering of winter wheat (field experiment); format: in vivo; conditions: for Number of medium tillers (% of control) / Number of productive tillers (% of control) / Number of weak tillers (% of control): Olomouc, 2012
Procedure: To evaluate the effect of seed coating with compound 12 on morphological yield forming traits of winter wheat field plot experiment was performed in year 2012 on locality Olomouc, Czech Republic. Seeds of winter weat bakery variety Diadem (Selgen) were coated with 10 and 50 μM concentration of compound 12 mixed into seed treatment agent Cruiser 350FS (Syngenta; 10 L of solution per 1000 kg of seeds), seeds coated with only Cruiser 350FS were used for control variant. The seeds were dried and then sown in the sowing rate 3.500.000 seeds per hectare in 4 replications per each variant in randomized positions (each replication was 10 square meter plot). The plants were analyzed for number of productive tillers, medium tillers and weak tillers.

human U2OS cells = assay: Induction of DNA breakage, γ-H2AX immunofluorescence; format: cell-based; conditions: 100 μM, 24 h, FIG. 13
Text: Maintenance of genome integrity is essential for homeostasis and survival as impaired DNA damage response may predispose to grave pathologies such as neurodegenerative and immunodeficiency syndromes, cancer and premature aging (Mistrik et al., 2009). The potential effect of compound 12 on stimulation of DNA breakage was thus further estimated through analysis of phosphorylated histone H2AX (gamma-H2AX) quantified by optimized automated single-cell image analysis (Mistrik et al., 2009). The compound 12 was tested in concentration of 100 μM, the highest concentration accessible due to the compound solubility. Induction of DNA breakage was tested using human U2OS cells. The U2OS cells were cultivated at standard cultivation condition (37° C., 5% CO2). As a positive control, cells were irradiated by roentgen radiation (Baltobloc) (0.5 Gy-2 Gy), one hour later fixed and stained for γ-H2AX, a well established marker of the DNA damage. Parallel samples were treated by compound 12 for 24 hours, fixed and also stained for γ-H2AX. Microscopy analysis followed by computer based signal quantification was performed as described previously (Mistrik et al., 2009).

[3] = tested on: Arabidopsis (ecotype Col-0); assay: Drenching application, morphological and yield traits of Arabidopsis in soil; format: in vivo
Procedure: To test the effect on wild-type plants Arabidopsis (ecotype Col-0) was grown in soil in controlled conditions in a growth chambre (16 hours light/8 hours dark; light intensity 120 […]; 22° C.; 60% humidity). In the stage of app. the middle of the principal growth stage 1 and the beginning of principal growth stage 5 (according to Arabidopsis growth stages described by Boyes et al., 2001) 1-10 mL of the compound 12 was applied regulary every third day in 0.1 and 1 μM concentration in different application rates (experiment 1-1 mL of 1 μM compound 12 water solution 12-times; experiment 2-10 mL of 0.1 and 1 μM compound 12 water solution 1-, 3- and 5-times) by drenching to each plant pot. DMSO (0.01%) was used as a solvent control. The plants were grown till the end of the generative stage and then morphological parametres (primary inflorescence stem length, number of auxiliary branches, number of lateral branches, fresh shoot biomass, number of flowers, number of siliques) and the seed yield were recorded.

## COc1cccc(Nc2nc(Cl)nc3c2ncn3C2CCCCO2)c1 (centres unmarked) [compound 12, 2-chloro-6-(3-methoxyanilino)-9-(tetrahydropyran-2-yl)purine]
[1]
  mutagenic potential in Ames test: did not score positively
[2]; 10 μM
  Number of medium tillers (% of control): 75.0* % of control
  Number of productive tillers (% of control): 106.5 % of control
  Number of weak tillers (% of control): 102.2 % of control
[2]; 50 μM
  Number of medium tillers (% of control): 78.1* % of control
  Number of productive tillers (% of control): 124.2** % of control
  Number of weak tillers (% of control): 80.4 % of control
[2]; 10 and 50 μM
  number of productive tillers compared to untreated control: 106-124%
Human U2OS cells
  DNA damage (γ-H2AX): no effect on DNA damage
[3]; 0.1 μM, application rate 1x
  No. of auxiliary branches: 4.06 ± 1.3
  No. of auxiliary branches (% of control): (113%)
  No. of flowers: 116.12 ± 70
  No. of flowers (% of control): (153%)*
  No. of lateral branches: 8.59 ± 3.1
  No. of lateral branches (% of control): (182%)***
  No. of siliques: 133.94 ± 47
  No. of siliques (% of control): (100%)
  fresh shoot biomass: 1.18 ± 0.4 g
  fresh shoot biomass (% of control): (108%)
  primary inflorescence stem length: 32.78 ± 5.5 cm
  primary inflorescence stem length (% of control): (98%)
  seed yield per plant: 0.30 ± 0.1 g
  seed yield per plant (% of control): (102%)
[3]; 0.1 μM, application rate 3x
  No. of auxiliary branches: 3.82 ± 0.6
  No. of auxiliary branches (% of control): (106%)
  No. of flowers: 91.23 ± 50.1
  No. of flowers (% of control): (120%)
  No. of lateral branches: 8.35 ± 3.3
  No. of lateral branches (% of control): (177%)***
  No. of siliques: 154.29 ± 25.6
  No. of siliques (% of control): (115%)
  fresh shoot biomass: 1.16 ± 0.2 g
  fresh shoot biomass (% of control): (106%)
  primary inflorescence stem length: 39.6 ± 3.8 cm
  primary inflorescence stem length (% of control): (119%)***
  seed yield per plant: 0.31 ± 0.1 g
  seed yield per plant (% of control): (106%)
[3]; 0.1 μM, application rate 5x
  No. of auxiliary branches: 3.94 ± 1.1
  No. of auxiliary branches (% of control): (109%)
  No. of flowers: 99.59 ± 59.3
  No. of flowers (% of control): (131%)
  No. of lateral branches: 9.82 ± 4.4
  No. of lateral branches (% of control): (208%)***
  No. of siliques: 141.24 ± 31.7
  No. of siliques (% of control): (105%)
  fresh shoot biomass: 1.18 ± 0.3 g
  fresh shoot biomass (% of control): (108%)
  primary inflorescence stem length: 38.61 ± 5.2 cm
  primary inflorescence stem length (% of control): (116%)***
  seed yield per plant: 0.35 ± 0.1 g
  seed yield per plant (% of control): (120%)
[3]; 1 μM, application rate 1x
  No. of auxiliary branches: 4.29 ± 1.5
  No. of auxiliary branches (% of control): (119%)
  No. of flowers: 139.65 ± 51.7
  No. of flowers (% of control): (184%)***
  No. of lateral branches: 13.35 ± 4.7
  No. of lateral branches (% of control): (283%)***
  No. of siliques: 134.82 ± 31.1
  No. of siliques (% of control): (100%)
  fresh shoot biomass: 1.17 ± 0.3 g
  fresh shoot biomass (% of control): (107%)
  primary inflorescence stem length: 32.66 ± 3.8 cm
  primary inflorescence stem length (% of control): (98%)
  seed yield per plant: 0.37 ± 0.1 g
  seed yield per plant (% of control): (126%)
[3]; 1 μM, application rate 3x
  No. of auxiliary branches: 4.29 ± 1.1
  No. of auxiliary branches (% of control): (119%)*
  No. of flowers: 118.53 ± 36.6
  No. of flowers (% of control): (156%)***
  No. of lateral branches: 13.50 ± 3.9
  No. of lateral branches (% of control): (286%)***
  No. of siliques: 155.29 ± 44.1
  No. of siliques (% of control): (116%)
  fresh shoot biomass: 1.23 ± 0.3 g
  fresh shoot biomass (% of control): (113%)
  primary inflorescence stem length: 39.07 ± 3.2 cm
  primary inflorescence stem length (% of control): (117%)***
  seed yield per plant: 0.36 ± 0.1 g
  seed yield per plant (% of control): (122%)
[3]; 1 μM, application rate 5x
  No. of auxiliary branches: 4.50 ± 1.3
  No. of auxiliary branches (% of control): (125%)
  No. of flowers: 143.56 ± 66.3
  No. of flowers (% of control): (189%)***
  No. of lateral branches: 16.44 ± 6.1
  No. of lateral branches (% of control): (349%)***
  No. of siliques: 220.00 ± 37.4
  No. of siliques (% of control): (164%)***
  fresh shoot biomass: 1.81 ± 0.3 g
  fresh shoot biomass (% of control): (166%)***
  primary inflorescence stem length: 44.66 ± 5.9 cm
  primary inflorescence stem length (% of control): (134%)***
  seed yield per plant: 0.33 ± 0.1 g
  seed yield per plant (% of control): (111%)
[3]; experiment 1: 1 mL of 1 μM, 12-times, drenching, FIG. 8
  overall shoot biomass: stimulation of the overall shoot biomass
[3]; experiment 2, higher doses
  increase of fresh shoot biomass compared to control: 6-22%
  increase of number of auxiliary branches compared to control: 6-25%
  increase of number of flowers compared to control: 20-89%
  increase of number of lateral branches compared to control: 77-249%
  increase of number of siliques compared to control: 5-66%
  increase of primary inflorescence stem length compared to control: 16-34%
  increase of seed yield compared to control: 6-26%
